Source: patent publication US20260200987A1, “PEPTIDE FOR CARTILAGE REGENERATION, AND USES THEREOF” (CAREGEN CO., LTD., priority 2022, published 2026)
Ends that are not written are not given here.

Experiments:
[1] = system: human adipose-derived mesenchymal stem cells (AD-MSC); experiment: CCK-8 assay, cytotoxicity; assay type: cell-based; conditions: after 7 days, peptide at different concentrations, FIG. 3 and FIG. 4
Procedure: Specifically, AD-MSC cells were seeded in 96-well plates at a density of 1.5×10^3 cells/well and cultured in Dulbecco's Modified Eagle's Medium (DMEM) supplemented with 10% FBS for 24 hours. Then, the medium was replaced with DMEM medium supplemented with 5% FBS, and Peptide-1 or Peptide-2 was treated at different concentrations, respectively. Subsequently, the medium was replaced every 3 days and Peptide-1 or Peptide-2 was treated at different concentrations, respectively. To confirm CCK-8 activity, after 7 days, CCK-8 (Dojindo, CCK-8 kit) solution was added at 1/10 volume of the culture medium, and incubated for 2 hours. The culture medium was sampled and CCK-8 activity was confirmed at a wavelength of 450 nm using a microplate reader.

[2] = system: human adipose-derived mesenchymal stem cells (AD-MSC); experiment: SRB staining, cell morphology changes; assay type: cell-based; conditions: peptide at different concentrations, FIG. 1 and FIG. 2
Procedure: Additionally, for SRB staining, after suctioning the medium from the plate, 60 μL of 3.7% formalin was added to the 96-well plate to be stained and fixed for 1 minute. After suctioning 3.7% formalin, 70 μL of SRB staining solution (sulforhodamine B sodium salt (sigma, S9012): 0.2 g in 100 mL DDW) was added and stained. The plate was covered with aluminum foil, blocked from light, and incubated overnight at room temperature. After washing with 100 μL of 1% acetic acid using a multi-pipette, it was dried and observed under a microscope.

Row | Sequence | toxicity toward adipose-derived mesenchymal stem cells (CCK-8 activity) [1] | change in cell morphology in SRB staining [2]
1 | FCRPRNDFF [Peptide-2, FCRPRNDFF] | did not exhibit toxicity | did not show any change in cell morphology
2 | RIAFLWVRIK [Peptide-1, RIAFLWVRIK] | did not exhibit toxicity | did not show any change in cell morphology
